Measured values as given in publication PMC5736175, “Nicotinic alpha 7 receptor agonists EVP-6124 and BMS-933043, attenuate scopolamine-induced deficits in visuo-spatial paired associates learning” (PLoS ONE, 2017).
Several values for one entry are separate records, joined by “and”; a condition that tells them apart may be missing. Equal values may be shown once. Where a name gives a salt, the structure may show the parent alone. Marks after values point to notes of the source that are not given here.

Legend:
cynomolgus monkeys = test: Scopolamine dose-response on CANTAB vsPAL task performance
From the text: Thirteen experimentally naïve male cynomolgus monkeys (Macaca Fasicularis; 3–5 years of age; 5.0–7.5 kg at the beginning of the study) served as subjects. Subjects were housed in pairs, separated during testing (Monday through Friday) and re-paired after feeding in the afternoon. Subjects were fed standard monkey chow (Harlan Teklad Global 20% protein Primate Diet 2050) in sufficient quantities to ensure normal growth while maintaining sufficient motivation to perform the cognitive testing [30]. Water was continuously available except during behavioral testing. Fresh fruit, toys and foraging devices were routinely provided in the monkey colony rooms.
For behavioral testing subjects were seated comfortably in restraint chairs (Primate Products, Immokalee, FL), and placed in individual, sound attenuated chambers (Med-Associates, St. Albans, VT), equipped with lights, a white noise generator and a monitoring camera. A touch-sensitive computer monitor was within easy reach and session events were controlled by a Monkey CANTAB test station; (Lafayette Instruments, Lafayette, IN) and Whisker Control [45]. Following correct responses, a dispenser delivered 190 mg banana-flavored pellets (Bioserv, Frenchtown PA).
Ten subjects were trained to perform the CANTAB vsPAL test as previously described [38, 46]. Briefly, the test required the animal to associate a stimulus (abstract shape) with a given spatial location on the computer screen (one of the four corners; S1 Fig). Ten trials each of increasing difficulty (2-, 3- or 4- stimuli) were presented. Trials began with the ‘sample phase’ where stimuli are presented and touched sequentially in their respective locations with a 1 sec delay between stimuli. Following 5 sec where the screen was blank, the choice phase began. The same stimulus was presented in all four corners of the screen for all difficulty levels. […] After a 1 sec screen blank another stimulus was presented in all four corners. If the animal touched the correct location for all shapes in the choice phase on the first attempt the trial was recorded as ‘correct on the initial attempt’. […] The same trial could be repeated up to 5 additional times.
If the animal learned the sequence by the 6th attempt, the trial was recorded as ‘eventual correct’, or ‘incorrect’ if not. […] Additional measures were the percent completion (the proportion of trials on which both sample and choice responses were made), and response latency (time from sample onset to the screen touch in the choice phase, averaged across difficulty conditions).
Drug testing was conducted on Mondays and Thursdays. An additional baseline session was conducted on Tuesdays. […] Additional animals were included in later studies as their performance improved.
There was a washout period of at least 2 weeks between studies.
Accuracy measures (i.e. percent initially correct and percent eventually correct) were analyzed with repeated measures analysis of variance (RM-ANOVA) with the two within-subject factors of difficulty (mean of number of stimuli per trial and overall mean) and treatment. Latencies to respond in all choice phases and percent task completed for the entire session were analyzed by one way RM ANOVA. […] Statistical tests were performed using OriginPro v 9.1 (OriginLab Co., Northampton, MA). Missing data were filled with the mean of the respective cell to enable RM ANOVA computation.

[1] = tested on: scopolamine-treated cynomolgus monkeys; test: Scopolamine-induced impairment of vsPAL task performance, treatment + scopolamine; format: in vivo, cynomolgus monkeys (Macaca Fasicularis); settings: for scopolamine impairment: difference between vehicle+vehicle and vehicle+scopolamine, % correct eventual: 4-stimuli condition; for Percent Correct on Initial Attempt (SEM), 2 stimuli / Percent Correct on Initial Attempt (SEM), 3 stimuli / Percent Correct on Initial Attempt (SEM), 4 stimuli: Vehicle + Scopolamine; for mean (cohen's d calculations): eventual correct, 4-stimuli
Protocol: Doses cited refer to the free base form of the compounds. […] All drugs were administered intramuscularly (i.m.) in a dosing volume of 0.1–0.2 ml/kg.
On days when compound testing occurred, approximately half the cohort received one dose and the remainder another dose of the same compound and therefore dose order was staggered between animals. With the exception of EVP-6124, all other compounds were tested in a single dose response study.
Cohen’s d values of >0.2, >0.5 and >0.8 are described using the conventions of small, medium, and large effects, respectively.

[2] = Scopolamine 0.003 mg/kg, i.m., MEAN
[3] = Scopolamine 0.003 mg/kg, i.m., individual animals
[4] = Scopolamine 0.0056 mg/kg, i.m., MEAN
[5] = Scopolamine 0.0056 mg/kg, i.m., individual animals
[6] = Scopolamine 0.01 mg/kg i.m., MEAN
[7] = Scopolamine 0.01 mg/kg i.m., individual animals
[8] = Average Individualized Scopolamine (0.0045-0.0067 mg/kg) + Vehicle, individual animals
[9] = Average Individualized Scopolamine + Vehicle, MEAN of 8 animals
[10] = Average Individualized Scopolamine + Vehicle, group MEAN
[11] = Average Individualized Scopolamine + Vehicle, group MEAN of 6 animals
[12] = EVP DRC 2, Average Individualized Scopolamine + Vehicle, group MEAN of 7 animals

## CN1[C@@H]2C[C@@H](OC(=O)[C@H](CO)c3ccccc3)C[C@H]1[C@@H]1O[C@@H]12 [Scopolamine, Scopolamine HCl]
Cynomolgus monkeys; [2]
  Eventual Correct, 2 Stimuli: 100.0%
  Eventual Correct, 3 Stimuli: 100.0%
  Eventual Correct, 4 Stimuli: 90.0%
  Eventual Correct, Overall Mean % Correct: 96.7%
  Initial Correct, 3 Stimuli: 68.7%
  Initial Correct, 4 Stimuli: 57.5%
  Initial Correct, Overall Mean % Correct: 74.2%
  Initial correct, 2 Stimuli: 96.3%
Cynomolgus monkeys; [3]
  % Completion: 63.0% and 97.0% and 100.0% and 84.0%
  Average Response Latency, ms (Avg Rsp Lat): 6153.3 ms and 1831.0 ms and 1549.1 ms and 1787.2 ms and 2129.2 ms and 2342.9 ms and 2289.1 ms and 1548.2 ms
  Eventual Correct, 2 Stimuli: 100.0%
  Eventual Correct, 3 Stimuli: 100.0%
  Eventual Correct, 4 Stimuli: 90.0% and 100.0%
  Eventual Correct, Overall Mean % Correct: 93.3% and 96.7% and 100.0%
  Initial Correct, 3 Stimuli: 70.0% and 100.0% and 40.0% and 60.0%
  Initial Correct, 4 Stimuli: 30.0% and 70.0% and 100.0% and 50.0% and 60.0%
  Initial Correct, Overall Mean % Correct: 63.3% and 100.0% and 73.3% and 66.7% and 70.0% and 76.7%
  Initial correct, 2 Stimuli: 90.0% and 100.0%
Cynomolgus monkeys; [4]
  Eventual Correct, 2 Stimuli: 95.0%
  Eventual Correct, 3 Stimuli: 84.3%
  Eventual Correct, 4 Stimuli: 51.1%
  Eventual Correct, Overall Mean % Correct: 76.8%
  Initial Correct, 3 Stimuli: 54.3%
  Initial Correct, 4 Stimuli: 32.8%
Cynomolgus monkeys; [5]
  % Completion: 21.0% and 62.0% and 51.0% and 97.0% and 88.0% and 91.0% and 34.5%
  Average Response Latency, ms (Avg Rsp Lat): 1881.3 ms and 2302.7 ms and 2706.5 ms and 2004.6 ms and 2231.8 ms and 2896.7 ms and 2108.4 ms and 1817.8 ms
  Eventual Correct, 2 Stimuli: 60.0% and 100.0%
  Eventual Correct, 3 Stimuli: 100.0% and 50.0% and 90.0% and 70.0%
  Eventual Correct, 4 Stimuli: 50.0% and 16.7% and 70.0% and 0.0% and 90.0%
  Eventual Correct, Overall Mean % Correct: 83.3% and 55.6% and 86.7% and 90.0% and 56.7% and 96.7%
  Initial Correct, 3 Stimuli: 70.0% and 40.0% and 20.0% and 60.0% and 50.0%
  Initial Correct, 4 Stimuli: 30.0% and 16.7% and 50.0% and 0.0% and 60.0%
  Initial Correct, Overall Mean % Correct: 26.0% and 63.3% and 76.7% and 53.3%
  Initial correct, 2 Stimuli: 50.0% and 90.0% and 100.0%
Cynomolgus monkeys; [6]
  Eventual Correct, 2 Stimuli: 96.3%
  Eventual Correct, 4 Stimuli: 36.8%
  Eventual Correct, Overall Mean % Correct: 68.5%
  Initial Correct, 3 Stimuli: 47.8%
  Initial Correct, 4 Stimuli: 20.1%
Cynomolgus monkeys; [7]
  % Completion: 63.6% and 78.0% and 52.6% and 100.0% and 43.5% and 50.8% and 31.0%
  Average Response Latency, ms (Avg Rsp Lat): 3290.4 ms and 1872.3 ms and 1904.8 ms and 2135.7 ms and 2272.7 ms and 2295.1 ms and 2067.4 ms and 1369.7 ms
  Eventual Correct, 2 Stimuli: 100.0% and 90.0% and 80.0%
  Eventual Correct, 3 Stimuli: 100.0% and 60.0% and 90.0% and 14.3%
  Eventual Correct, 4 Stimuli: 44.4% and 25.0% and 0.0%
  Eventual Correct, Overall Mean % Correct: 81.5% and 75.0% and 53.3% and 89.3%
  Initial Correct, 3 Stimuli: 50.0% and 70.0% and 90.0% and 30.0% and 0.0% and 12.5%
  Initial Correct, 4 Stimuli: 33.3% and 25.0% and 0.0% and 22.2%
  Initial Correct, Overall Mean % Correct: 68.3% and 36.7% and 60.7% and 26.7% and 20.9% and 53.4%
  Initial correct, 2 Stimuli: 90.0% and 60.0% and 30.0%
[1]; donepezil study
  scopolamine impairment: difference between vehicle+vehicle and vehicle+scopolamine, % correct eventual: 49.4%
  Percent Correct on Initial Attempt (SEM), 2 stimuli: 79.6% (5.3%)
  Percent Correct on Initial Attempt (SEM), 3 stimuli: 49.2% (6.5%) †
  Percent Correct on Initial Attempt (SEM), 4 stimuli: 25.8% (4.5%) ††
[1]; first EVP-6124 study
  scopolamine impairment: difference between vehicle+vehicle and vehicle+scopolamine, % correct eventual: 20.5%
[1]; [8]
  % Completion: 57.3% and 62.4% and 94.5% and 85.3% and 87.0% and 81.6%
  Average Response Latency: 1943.4 ms and 2791.5 ms and 2008.6 ms and 2389.3 ms and 2808.7 ms and 2502.8 ms
  Eventual Correct, 2 Stimuli: 90.0% and 100.0% and 95.0% and 97.5%
  Eventual Correct, 3 Stimuli: 65.7% and 66.7% and 90.0%
  Eventual Correct, 4 Stimuli: 36.7% and 32.2% and 47.1% and 63.3% and 32.5% and 69.2%
  Eventual Correct, Overall Mean % Correct: 66.2% and 66.3% and 73.2% and 84.4% and 71.7% and 85.6%
  Initial Correct, 3 Stimuli: 40.0% and 47.5% and 30.0% and 42.5% and 60.0%
  Initial Correct, 4 Stimuli: 16.7% and 22.5% and 20.0%
  Initial Correct, Overall Mean % Correct: 53.1% and 56.9% and 66.9%
  Initial correct, 2 Stimuli: 60.0% and 95.0% and 70.0% and 87.5%
[1]; [9]
  Average Response Latency (Avg Rsp Lat): 2342.3 ms
  Eventual Correct, 2 Stimuli: 98.1%
  Eventual Correct, 4 Stimuli: 50.3%
  Eventual Correct, Overall Mean % Correct: 76.1%
  Initial Correct, 3 Stimuli: 46.2%
  Initial Correct, 4 Stimuli: 19.5%
  Initial correct, 2 Stimuli: 84.3%
[1]; [10]
  % Completion: 83.8%
  Average Response Latency (Avg rsp lat): 1934.6 ms
  Eventual Correct, 2 Stimuli: 99.7%
  Eventual Correct, 3 Stimuli: 98.0%
  Eventual Correct, Overall Mean % Correct: 92.3%
  Initial Correct, 3 Stimuli: 70.0%
  Initial Correct, Overall Mean % Correct: 65.4%
  Initial correct, 2 Stimuli: 87.2%
[1]; [11]
  % Completion: 78.0%
  Average Response Latency: 2407.4 ms
  Eventual Correct, 2 Stimuli: 97.1%
  Eventual Correct, 4 Stimuli: 46.8%
  Eventual Correct, Overall Mean % Correct: 74.6%
  Initial Correct, 3 Stimuli: 49.2%
[1]; [12]
  Average Response Latency (Avg rsp lat): 2021.60 ms
  Eventual Correct, 2 Stimuli: 99.5%
  Eventual Correct, 3 Stimuli: 95.7%
  Eventual Correct, 4 Stimuli: 65.7%
  Eventual Correct, Overall Mean % Correct: 87.7%
  Initial Correct, 3 Stimuli: 66.2%
  Initial Correct, 4 Stimuli: 34.6%
  Initial Correct, Overall Mean % Correct: 64.9%
  Initial correct, 2 Stimuli: 91.9%
[1]; BMS-933043 study
  Percent Correct on Initial Attempt (SEM), 2 stimuli: 89.6% (1.8%)
  Percent Correct on Initial Attempt (SEM), 3 stimuli: 67.0% (5.0%)
  Percent Correct on Initial Attempt (SEM), 4 stimuli: 37.3% (7.4%) ††
[1]; EVP-6124 study 1
  Percent Correct on Initial Attempt (SEM), 2 stimuli: 87.3% (4.0%)
  Percent Correct on Initial Attempt (SEM), 3 stimuli: 70.0% (3.4%) ††
  Percent Correct on Initial Attempt (SEM), 4 stimuli: 38.8% (4.0%) ††
[1]; EVP-6124 study 2
  Percent Correct on Initial Attempt (SEM), 2 stimuli: 91.9% (3.6%)
  Percent Correct on Initial Attempt (SEM), 3 stimuli: 66.2% (7.6%) †
  Percent Correct on Initial Attempt (SEM), 4 stimuli: 34.6% (4.2%) ††
[1]; RG3487 study
  Percent Correct on Initial Attempt (SEM), 2 stimuli: 84.3% (2.8%)
  Percent Correct on Initial Attempt (SEM), 3 stimuli: 46.2% (8.0%) ††
  Percent Correct on Initial Attempt (SEM), 4 stimuli: 19.5% (4.9%) ††
[1]; scop+vehicle, donepezil study
  mean (cohen's d calculations): 46.8
[1]; veh+scop, BMS-933043 study
  mean (cohen's d calculations): 65.7
[1]; vehicle+scop, EVP-6124 study 2
  mean (cohen's d calculations): 65.7
